In US20260373135A1, “Methods of Treatment with Tradipitant” (Vanda Pharmaceuticals Inc., priority 2022, published 2026):
Where two headings read alike, the source gives them in different places.

Assays:
[1] = Four-period, two-way crossover open label single-dose food-effect pharmacokinetic study of tradipitant capsules in healthy participants (plasma tradipitant and metabolites M2, M3, M4, M8); format: in vivo, human; conditions: for AUC(0-t), Least Squares Geometric Mean Ratio (%), Estimate / AUC(inf), Least Squares Geometric Mean Ratio (%), Estimate / Cmax, Least Squares Geometric Mean Ratio (%), Estimate: fed/fasted; for Tmax / AUC(0-t) / AUC(0-inf) / Cmax: plasma; for Tmax: median; for AUC(inf) Ratio of geometric means (170 mg / 85 mg) / Cmax Ratio of geometric means (170 mg / 85 mg): 85 mg vs 170 mg tradipitant
Protocol: To evaluate the pharmacokinetics and effect of food on the bioavailability of single-dose capsules containing 170 mg tradipitant and 85 mg tradipitant, an open label, four-period, two-way crossover study is performed. The study comprises two cohorts, each of which conducts a screening phase and an evaluation phase. Cohort 1 only conducts Period 1 and Period 2 (FIG. 5), while Cohort 2 only conducts Period 3 and Period 4 (FIG. 6). It is possible for a participant in Cohort 1 to be a Participant in Cohort 2.
The screening phase (Day-21 to Day-2, FIGS. 5-6) consists of a screening visit wherein an informed consent is obtained from potential participants, and their eligibility is initially assessed based on vital signs, body measurements, physical examination, ECG, clinical laboratory tests, drug and alcohol screen, and medical history. Clinical laboratory testing includes a pharmacogenetics sample for whole genome sequencing. Participants may include men or women aged 18-55 years, inclusive at the time of screening; having a Body Mass Index (BMI) of ≥18.0 and ≤39.0 kg/m^2 (BMI=weight (kg)/[height (m)]^2); and female participants of childbearing potential must be non-pregnant and non-lactating. Participants must be in good health as determined by a medical and psychiatric history, physical examination, electrocardiogram, and serum chemistry and hematology; willing to comply with study procedures and restrictions; willing to provide a pharmacogenetic sample; and have negative test result for selected substances of abuse at screening. Individuals may be excluded from participating based on history (within the 12 months prior to screening) of psychiatric disorders; current clinically significant cardiovascular, respiratory, neurologic, hepatic, hematopoietic, renal, gastrointestinal, or metabolic dysfunction unless currently controlled and stable; history of intolerance and/or hypersensitivity to other NK-1 receptor antagonists; clinically significant deviation from normal in clinical laboratory results, vital signs measurements, or physical examination findings at screening as determined by the clinical investigator; major surgery, trauma (including broken pelvis/legs), illness (e.g. sepsis), or immobility for 3 or more days within the past month; active cancer or cancer treatment within the past 6 months prior to screening; central venous catheter in place or within the past month; impaired liver function indicated by AST, ALT, or bilirubin >2 times the upper limit of normal, unless there is an isolated bilirubin >2 times the upper limit of normal due to Gilbert's syndrome; pregnancy or recent pregnancy (within 6 weeks prior to screening) or women who are breastfeeding; history of drug or alcohol abuse as defined in DSM-V, Diagnostic Criteria for Drug and Alcohol Abuse, within the 12 months prior to screening and/or regular consumption of alcoholic drinks (>2 drinks/day or >14 drinks/week); randomization in a previous tradipitant trial; and participants at risk of suicide, in the opinion of the Investigator. […]

[2] = target: CYP3A4 (Homo sapiens, UniProt P08684); assay: Role of CYP3A4 genotype (CYP3A4*22) in metabolism/clearance of tradipitant, phase III study pharmacokinetics; format: in vivo
Chain of CYP3A4 (P08684 whole entry): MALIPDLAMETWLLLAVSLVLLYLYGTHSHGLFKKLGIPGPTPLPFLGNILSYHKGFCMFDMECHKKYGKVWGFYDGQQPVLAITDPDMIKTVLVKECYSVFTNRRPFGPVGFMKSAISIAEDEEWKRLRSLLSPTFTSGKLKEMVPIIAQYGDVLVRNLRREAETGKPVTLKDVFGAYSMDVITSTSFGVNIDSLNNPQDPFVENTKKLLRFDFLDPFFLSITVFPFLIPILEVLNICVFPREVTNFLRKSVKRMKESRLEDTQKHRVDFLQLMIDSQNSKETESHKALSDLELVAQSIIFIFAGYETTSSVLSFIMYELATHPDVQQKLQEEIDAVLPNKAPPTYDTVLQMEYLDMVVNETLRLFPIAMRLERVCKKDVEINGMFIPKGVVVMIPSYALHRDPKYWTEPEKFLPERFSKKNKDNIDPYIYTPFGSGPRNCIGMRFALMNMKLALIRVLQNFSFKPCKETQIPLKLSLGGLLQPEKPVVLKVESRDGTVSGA
Protocol: To investigate the role of CYP3A4 genotypes in the metabolism of tradipitant, pharmacokinetics are analyzed in view of CYP3A4 genotype in a phase III study of humans dosed with tradipitant. In the investigation, all CYP3A4 alleles (as recognized by the Human Cytochrome P450 Allele Nomenclature Database) are reviewed. The analysis includes a linear model that is tested on various ratios of parent compound (tradipitant) or its metabolites, including: • Ratio A=Sum of (M2+M3+M4)/M8, and • Ratio B=(tradipitant)/(M3).
After correction for covariates, including principal components (PCs), age, sex, and body mass index (BMI), CYP3A4*22 is identified as a variant of interest, with a p-value of 1×10^−5. […] The effect of multiple alleles of interest is cumulative, as shown by the median ratios present in individuals having a CYP3A4 genotype of *22/*1, i.e. heterozygous for the *22 variant of interest (*22 het), compared with individuals having a CYP3A4 genotype of *22/*22+*3/*1 genotype, i.e., homozygous for the *22 variant of interest.
The graphs shown in FIGS. 2A-2H illustrate the plasma concentrations of tradipitant (FIG. 2A), metabolite M2 (FIG. 2B), metabolite M3 (FIG. 2C), metabolite M4 (FIG. 2D), metabolite M8 (FIG. 2E), ratio of tradipitant to M8 (FIG. 2F), ratio of all metabolites to M8 (i.e., (M2+M3+M4)/M8) (FIG. 2G), and ratio of tradipitant to M3 (FIG. 2H) in individuals in a study population. […] This reflects the reduced ability to clear tradipitant in individuals having a *22 allele.
The apparent clearance of tradipitant is plotted for individuals having a wild type (WT) genotype as compared to individuals having a heterozygous *22 (*22 het) genotype. The ratio of clearance (CL) in *22 het to WT is calculated as exp (median (HET)-median (WT)). Below these calculations, the P value is reported for a t test comparing the ETA values. […] Post hoc ETAs are the following: log (individual value for clearance/typical value for clearance), where “typical value” is essentially the median value. […]

[3] = fasted conditions, 85 mg vs 170 mg

## O=C(c1ccccc1Cl)c1cccnc1-c1nnn(Cc2cc(C(F)(F)F)cc(C(F)(F)F)c2)c1-c1ccncc1 [tradipitant, {2-[1-(3,5-Bistrifluoromethylbenzyl)-5-pyridin-4-yl-1H-[1,2,3]triazol-4-yl]-pyridin-3-yl}-(2-chlorophenyl)-methanone]
[1]; 85 mg tradipitant oral, fed vs fasted
  increase in Tmax in the fed state: 2 fold
[1]; 85 mg tradipitant oral
  AUC(0-t), Least Squares Geometric Mean Ratio (%), Estimate: 234.21%
  AUC(inf), Least Squares Geometric Mean Ratio (%), Estimate: 263.08%
  Cmax, Least Squares Geometric Mean Ratio (%), Estimate: 437.59%
[1]; 85 mg tradipitant oral, listed as Tradipitant
  Cmax, Least Squares Geometric Mean Ratio (%), Estimate: 473.59%
[1]; 170 mg tradipitant oral, fasted
  Tmax: 1.50 (15) hr
[1]; 170 mg tradipitant oral
  AUC(0-t), Least Squares Geometric Mean Ratio (%), Estimate: 328.21%
  AUC(inf), Least Squares Geometric Mean Ratio (%), Estimate: 381.70%
  Cmax, Least Squares Geometric Mean Ratio (%), Estimate: 703.87%
[1]; 170 mg tradipitant oral, fed
  Tmax: 4.00 (15) hr
[1]; [3]
  dose proportionality of AUC(inf): close to dose proportional
  dose proportionality of Cmax: less than dose proportionality
[1]; fasted conditions
  AUC(inf) Ratio of geometric means (170 mg / 85 mg): 1.92
  Cmax Ratio of geometric means (170 mg / 85 mg): 1.32
[1]; fed conditions
  AUC(inf) Ratio of geometric means (170 mg / 85 mg): 2.30
  Cmax Ratio of geometric means (170 mg / 85 mg): 1.93
[1]; fed vs fasted, both 170 mg and 85 mg doses
  effect of fed state on absorption (extent/rate, Tmax): an increase in the extent and a decrease in the rate of absorption
[1]; human, po, 85 mg, 85 mg tradipitant oral, fasted, ln-transformed, read-out: AUC(0-t), Least Squares Geometric Mean, Fasted
  AUC(0-t): 1650 ng·h/mL
[1]; human, po, 85 mg, 85 mg tradipitant oral, fasted, ln-transformed, read-out: AUC(inf), Least Squares Geometric Mean, Fasted
  AUC(0-inf): 1790 ng·h/mL
[1]; human, po, 85 mg, 85 mg tradipitant oral, fasted, ln-transformed, read-out: Cmax, Least Squares Geometric Mean, Fasted
  Cmax: 84.7 ng/mL
[1]; human, po, 85 mg, 85 mg tradipitant oral, fasted, geometric mean [geometric % CV], read-out: AUC(inf)
  AUC(0-inf): 1840 ng·h/mL
[1]; human, po, 85 mg, 85 mg tradipitant oral, fasted, geometric mean [geometric % CV], read-out: Cmax
  Cmax: 84.7 ng/mL
[1]; human, po, 85 mg, 85 mg tradipitant oral, fasted, read-out: Tmax
  Tmax: 2 h
[1]; human, po, 85 mg, 85 mg tradipitant oral, fed, ln-transformed, read-out: AUC(0-t), Least Squares Geometric Mean, Fed
  AUC(0-t): 3860 ng·h/mL
[1]; human, po, 85 mg, 85 mg tradipitant oral, fed, ln-transformed, read-out: AUC(inf), Least Squares Geometric Mean, Fed
  AUC(0-inf): 4700 ng·h/mL
[1]; human, po, 85 mg, 85 mg tradipitant oral, fed, ln-transformed, read-out: Cmax, Least Squares Geometric Mean, Fed
  Cmax: 401 ng/mL
[1]; human, po, 85 mg, 85 mg tradipitant oral, fed, geometric mean [geometric % CV], read-out: AUC(inf)
  AUC(0-inf): 4520 ng·h/mL
[1]; human, po, 85 mg, 85 mg tradipitant oral, fed, geometric mean [geometric % CV], read-out: Cmax
  Cmax: 401 ng/mL
[1]; human, po, 85 mg, 85 mg tradipitant oral, fed, read-out: Tmax
  Tmax: 4 h
[1]; human, po, 170 mg, 170 mg tradipitant oral, fasted, ln-transformed, read-out: AUC(0-t), Least Squares Geometric Mean, Fasted
  AUC(0-t): 2800 ng·h/mL
[1]; human, po, 170 mg, 170 mg tradipitant oral, fasted, ln-transformed, read-out: AUC(inf), Least Squares Geometric Mean, Fasted
  AUC(0-inf): 2730 ng·h/mL
[1]; human, po, 170 mg, 170 mg tradipitant oral, fasted, ln-transformed, read-out: Cmax, Least Squares Geometric Mean, Fasted
  Cmax: 111 ng/mL
[1]; human, po, 170 mg, 170 mg tradipitant oral, fasted, geometric mean [geometric % CV], read-out: AUC(inf)
  AUC(0-inf): 3530 ng·h/mL
[1]; human, po, 170 mg, 170 mg tradipitant oral, fasted, geometric mean [geometric % CV], read-out: Cmax
  Cmax: 112 ng/mL
[1]; human, po, 170 mg, 170 mg tradipitant oral, fasted, read-out: Tmax
  Tmax: 1.5 h
[1]; human, po, 170 mg, 170 mg tradipitant oral, fed, ln-transformed, read-out: AUC(0-t), Least Squares Geometric Mean, Fed
  AUC(0-t): 9180 ng·h/mL
[1]; human, po, 170 mg, 170 mg tradipitant oral, fed, ln-transformed, read-out: AUC(inf), Least Squares Geometric Mean, Fed
  AUC(0-inf): 10400 ng·h/mL
[1]; human, po, 170 mg, 170 mg tradipitant oral, fed, ln-transformed, read-out: Cmax, Least Squares Geometric Mean, Fed
  Cmax: 778 ng/mL
[1]; human, po, 170 mg, 170 mg tradipitant oral, fed, geometric mean [geometric % CV], read-out: AUC(inf)
  AUC(0-inf): 10400 ng·h/mL
[1]; human, po, 170 mg, 170 mg tradipitant oral, fed, geometric mean [geometric % CV], read-out: Cmax
  Cmax: 774 ng/mL
[1]; human, po, 170 mg, 170 mg tradipitant oral, fed, read-out: Tmax
  Tmax: 4 h
[2]; CYP3A4*22 heterozygotes vs wild type
  reduction of tradipitant clearance in *22 heterozygotes: 34%
[2]; CYP3A4*22 heterozygous vs wild type (*1/*1), plasma, FIGS. 2A-2D
  median plasma concentration in *22 het vs wild type: clearly greater median concentrations
[2]; CYP3A4*22 heterozygous vs wild type, plasma, FIG. 2F
  median ratio of tradipitant to M8 in *22 het vs wild type: clearly greater median ratio of tradipitant to M8
